Experimental data reported in US20240139136A1, “METHODS AND FORMULATIONS FOR TOPICAL ADMINISTRATION OF GABAPENTINOIDS” (VYLUMA INC., priority 2021, published 2024).

Tested on: rats with post-surgical corneal injuries
Assay: Capsaicin-induced ipsilateral paw (eye) wipes in rats with post-surgical corneal injury
Format: in vivo
Conditions: 3% ophthalmic formulation, topical; challenge with 40 μL 0.1% capsaicin 15 minutes after administration; compared with capsaicin-alone baseline; FIG. 1
Procedure: Test ophthalmic formulations were administered to rats with post-surgical corneal injuries to test the efficacy of the formulations in treating corneal pain. A negative control was established by treating all animals with artificial tears (AT) and counting ipsilateral paw wipes for 60 seconds (FIG. 1, Baseline (Pre-induction)). 20 minutes later, a positive control was established by treating all animals with 40 μL 0.1% capsaicin and counting ipsilateral paw wipes for 60 seconds (FIG. 1, Baseline). Eyes were then flushed with balanced salt solution (BSS) and AT. 20 minutes later, all animals were treated with the test ophthalmic formulation (0.5% proparacaine (positive control), 3% nalbuphine, 3% pregabalin, or 3% ketamine). 15 minutes later, all animals were treated with 40 μL 0.1% capsaicin, and ipsilateral paw wipes were counted for 60 seconds (FIG. 1, 15 Minutes).

Structure (SMILES)	eye wipes (ipsilateral paw wipes counted for 60 seconds)
CNC1(c2ccccc2Cl)CCCCC1=O (stereo not drawn) [ketamine]	borderline response
Oc1ccc2c3c1O[C@H]1[C@@H](O)CC[C@@]4(O)[C@@H](C2)N(CC2CCC2)CC[C@]314 [nalbuphine]	significant decrease
CC(C)C[C@H](CN)CC(=O)O [pregabalin]	significant decrease
